From US7928140B2, “Benzothiazole PI3 kinase modulators for cancer treatment” (Amgen Inc., priority 2007, dated 2011)
Where two headings read alike, the source gives them in different places.

Legend:
[1] = target: T1, PI3K α (Homo sapiens, UniProt P42336); experiment: In vitro PI3 kinase enzyme assay (alpha), ATP loss, bioluminescence; assay type: biochemical; conditions: read-out: PI3Kα ATP loss IC50;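 further: purified p110α/p85 heterodimer acting on PtdIns(4,5)P2 at room temperature, remaining ATP read by luminescence, inhibition scaled between compound-free wells with and without enzyme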
T1 construct: Full length p110 subunits of PI3K α, β and δ, N-terminally labeled with polyHis tag; polyHis (N); made in house; host or cells: Sf9 insect cells (baculovirus)

[2] = target: T2, PI3K β (Homo sapiens, UniProt P42338); experiment: In vitro PI3 kinase enzyme assay (beta), ATP loss, bioluminescence; assay type: biochemical; conditions: read-out: PI3Kβ ATP loss IC50;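 further: purified p110β/p85 heterodimer with PtdIns(4,5)P2 as acceptor, incubated at room temperature, leftover ATP read by luminescence, inhibition scaled to compound-free wells with and without enzyme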
T2 construct: Full length p110 subunits of PI3K α, β and δ, N-terminally labeled with polyHis tag; polyHis (N); made in house; host or cells: Sf9 insect cells (baculovirus)

[3] = test system: phosphorylation of Serine 473 in Akt, HCT 116 human colon carcinoma cells; experiment: Cell-based phospho-AKT Ser473 assay (MSD sandwich immunoassay, IGF-1 stimulated); conditions: Homo sapiens
Outline: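 Akt Ser473 phosphorylation was measured by MSD electrochemiluminescent sandwich immunoassay in lysates of HCT116 cells (16,000 cells/well). Cells received a compound dilution series for 2 h at 37 °C before a 15 min IGF-1 (100 ng/ml) stimulus, with IC50 calculated from the dose-response.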

[4] = HCT-116, HCT 116 cells, read-out: HCT 116 pAKT IC50

T1 sequence (P42336 whole entry, species assumed): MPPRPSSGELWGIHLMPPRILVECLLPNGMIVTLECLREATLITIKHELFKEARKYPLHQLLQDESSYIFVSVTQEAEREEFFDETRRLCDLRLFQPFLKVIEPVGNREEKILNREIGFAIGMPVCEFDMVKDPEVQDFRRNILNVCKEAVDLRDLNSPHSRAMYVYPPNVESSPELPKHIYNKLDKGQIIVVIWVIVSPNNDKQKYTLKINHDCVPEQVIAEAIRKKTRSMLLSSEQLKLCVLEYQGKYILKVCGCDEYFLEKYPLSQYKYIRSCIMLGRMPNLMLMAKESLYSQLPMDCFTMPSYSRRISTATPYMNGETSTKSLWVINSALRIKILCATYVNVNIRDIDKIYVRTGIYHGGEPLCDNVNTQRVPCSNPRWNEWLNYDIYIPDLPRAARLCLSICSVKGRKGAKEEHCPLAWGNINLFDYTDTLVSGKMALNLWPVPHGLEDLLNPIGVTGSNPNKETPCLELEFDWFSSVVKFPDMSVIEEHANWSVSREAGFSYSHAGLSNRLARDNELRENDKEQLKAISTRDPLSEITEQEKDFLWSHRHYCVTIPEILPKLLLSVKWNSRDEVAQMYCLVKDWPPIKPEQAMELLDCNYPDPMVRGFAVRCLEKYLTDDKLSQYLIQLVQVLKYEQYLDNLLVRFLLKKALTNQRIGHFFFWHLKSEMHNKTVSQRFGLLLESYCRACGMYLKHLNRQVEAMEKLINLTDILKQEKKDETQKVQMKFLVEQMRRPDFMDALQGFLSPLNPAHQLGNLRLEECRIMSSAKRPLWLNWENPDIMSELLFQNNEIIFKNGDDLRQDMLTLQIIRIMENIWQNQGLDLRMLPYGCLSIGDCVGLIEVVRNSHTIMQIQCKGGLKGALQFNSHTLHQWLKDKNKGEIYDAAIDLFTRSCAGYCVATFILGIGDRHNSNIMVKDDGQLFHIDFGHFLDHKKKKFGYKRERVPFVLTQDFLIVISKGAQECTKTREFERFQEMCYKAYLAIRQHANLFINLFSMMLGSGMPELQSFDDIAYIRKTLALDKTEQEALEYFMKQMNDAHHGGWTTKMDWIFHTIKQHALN
T1 sequence (P27986 whole entry partner, species assumed): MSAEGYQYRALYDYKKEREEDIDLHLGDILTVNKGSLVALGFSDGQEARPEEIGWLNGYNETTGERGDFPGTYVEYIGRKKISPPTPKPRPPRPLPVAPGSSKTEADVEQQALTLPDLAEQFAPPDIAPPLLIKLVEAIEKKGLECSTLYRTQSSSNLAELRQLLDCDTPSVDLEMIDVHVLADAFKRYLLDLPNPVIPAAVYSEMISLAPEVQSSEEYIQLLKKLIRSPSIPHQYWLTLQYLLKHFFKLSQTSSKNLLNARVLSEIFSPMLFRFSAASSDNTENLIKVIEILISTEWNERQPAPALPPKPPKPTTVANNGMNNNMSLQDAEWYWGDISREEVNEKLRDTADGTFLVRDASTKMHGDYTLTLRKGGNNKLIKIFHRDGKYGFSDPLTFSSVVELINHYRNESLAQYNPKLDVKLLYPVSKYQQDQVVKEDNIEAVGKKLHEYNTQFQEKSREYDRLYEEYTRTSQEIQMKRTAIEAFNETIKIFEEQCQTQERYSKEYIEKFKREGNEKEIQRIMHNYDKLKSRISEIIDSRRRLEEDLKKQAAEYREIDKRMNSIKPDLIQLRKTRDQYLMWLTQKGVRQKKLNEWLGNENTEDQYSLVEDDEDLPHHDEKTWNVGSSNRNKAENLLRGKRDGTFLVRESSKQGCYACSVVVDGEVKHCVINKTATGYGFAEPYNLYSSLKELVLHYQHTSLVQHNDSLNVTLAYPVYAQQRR
T2 sequence (P42338 whole entry): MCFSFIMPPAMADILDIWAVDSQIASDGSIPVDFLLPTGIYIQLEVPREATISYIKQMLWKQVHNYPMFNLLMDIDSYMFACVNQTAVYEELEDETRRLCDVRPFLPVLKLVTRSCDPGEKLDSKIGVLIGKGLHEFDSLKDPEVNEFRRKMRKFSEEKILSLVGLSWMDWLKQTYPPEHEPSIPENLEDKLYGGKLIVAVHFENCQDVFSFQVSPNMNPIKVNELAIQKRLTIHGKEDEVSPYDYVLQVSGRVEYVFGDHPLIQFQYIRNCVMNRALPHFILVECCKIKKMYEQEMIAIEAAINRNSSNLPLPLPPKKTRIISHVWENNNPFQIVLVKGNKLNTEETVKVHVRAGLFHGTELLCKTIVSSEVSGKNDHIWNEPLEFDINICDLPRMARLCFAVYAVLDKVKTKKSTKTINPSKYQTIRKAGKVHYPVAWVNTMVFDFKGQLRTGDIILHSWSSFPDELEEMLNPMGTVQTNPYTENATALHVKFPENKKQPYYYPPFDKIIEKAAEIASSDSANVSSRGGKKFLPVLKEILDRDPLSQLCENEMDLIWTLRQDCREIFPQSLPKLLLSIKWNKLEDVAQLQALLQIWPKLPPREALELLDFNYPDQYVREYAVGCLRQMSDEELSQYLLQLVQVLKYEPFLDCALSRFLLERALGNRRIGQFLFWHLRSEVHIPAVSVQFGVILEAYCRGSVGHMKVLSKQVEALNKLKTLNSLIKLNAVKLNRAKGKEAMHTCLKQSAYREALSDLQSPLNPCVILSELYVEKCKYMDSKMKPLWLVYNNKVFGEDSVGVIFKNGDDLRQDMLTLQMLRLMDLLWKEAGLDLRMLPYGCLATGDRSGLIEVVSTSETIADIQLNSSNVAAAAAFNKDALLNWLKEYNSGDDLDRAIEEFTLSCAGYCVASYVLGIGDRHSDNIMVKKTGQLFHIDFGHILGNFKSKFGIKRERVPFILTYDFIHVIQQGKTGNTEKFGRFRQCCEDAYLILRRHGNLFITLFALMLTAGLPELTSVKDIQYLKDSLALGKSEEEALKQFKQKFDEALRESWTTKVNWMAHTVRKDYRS
T2 sequence (P27986 whole entry partner): as the sequence (P27986 whole entry partner, species assumed) above

Compound | IC50 [1] | IC50 [2] | IC50 [3, 4] | IC50 ([3]; HCT-116, read-out: HCT 116 pAKT IC50)
CC(=O)Nc1nc2ccc(-c3cnc(Cl)c(O[C@H]4CCOC4)c3)cc2s1 [Example 236, N-(6-(6-chloro-5-((S)-tetrahydrofuran-3-yloxy)pyridin-3-yl)benzo[d]thiazol-2-yl)acetamide] | 150 nM | 1370 nM | 828 nM | –
COc1ccncc1-c1ccc2nc(NC(C)=O)sc2c1 [Example 241, N-(6-(4-methoxypyridin-3-yl)benzo[d]thiazol-2-yl)acetamide] | 73.5 nM | 10700 nM | 816 nM | –
COc1ccc(-c2ccc3nc(NC(C)=O)sc3c2)cn1 [Example 242, N-(6-(6-methoxypyridin-3-yl)benzo[d]thiazol-2-yl)acetamide] | 73.9 nM | > 40000 nM | 636 nM | –
CC(=O)Nc1nc2ccc(-c3cnc(Cl)c(NS(=O)(=O)c4ccc(C(C)O)cc4)c3)cc2s1 (stereo not drawn) [Example 256, N-(6-(6-chloro-5-(4-(1-hydroxyethyl)phenylsulfonamido)pyridin-3-yl)benzo[d]thiazol-2-yl)acetamide] | 5.2 nM | 7.3 nM | 9.9 nM | –
CC(=O)Nc1nc2ccc(-c3cncc(NS(=O)(=O)c4ccc(C(C)O)cc4)c3)cc2s1 (stereo not drawn) [Example 259, N-(6-(5-(4-(1-hydroxyethyl)phenylsulfonamido)pyridin-3-yl)benzo[d]thiazol-2-yl)acetamide] | 12.1 nM | 32.2 nM | 388 nM | –
CC(=O)Nc1nc2ccc(-c3ccnc(NC4CCOCC4)n3)cc2s1 [Example 261, N-(6-(2-(tetrahydro-2H-pyran-4-ylamino)pyrimidin-4-yl)benzo[d]thiazol-2-yl)acetamide] | 900 nM | 13100 nM | 1700 nM | –
CC(=O)Nc1nc2ccc(-c3cnc(C#N)c(N)c3)cc2s1 [Example 268, N-(6-(5-amino-6-cyanopyridin-3-yl)benzo[d]thiazol-2-yl)acetamide] | 241 nM | 17000 nM | 842 nM | –
CC(=O)Nc1nc2ccc(-c3cnc(Cl)c(N(C)C)c3)cc2s1 [Example 269, N-(6-(6-Chloro-5-(dimethylamino)pyridin-3-yl)benzo[d]thiazol-2-yl)acetamide] | 19.9 nM | 221 nM | 56.7 nM | –
CN(C)c1cc(-c2ccc3nc(NC(=O)Oc4ccccc4)sc3c2)cnc1Cl [Example 270, Phenyl 6-(6-chloro-5-(dimethylamino)pyridin-3-yl)benzo[d]thiazol-2-ylcarbamate] | 34.6 nM | 2460 nM | – | > 5000 nM
COCC(=O)Nc1nc2ccc(-c3cnc(Cl)c(N(C)C)c3)cc2s1 [Example 271, N-(6-(6-Chloro-5-(dimethylamino)pyridin-3-yl)benzo[d]thiazol-2-yl)-2-methoxyacetamide] | 51.5 nM | 1230 nM | 312 nM | –
CN(C)c1cc(-c2ccc3nc(NC(=O)COc4ccccc4)sc3c2)cnc1Cl [Example 272, N-(6-(6-chloro-5-(dimethylamino)pyridin-3-yl)benzo[d]thiazol-2-yl)-2-phenoxyacetamide] | 58.9 nM | 1450 nM | > 5000 nM | –
CN(C)c1cc(-c2ccc3nc(N)sc3c2)cnc1Cl [Example 274, 6-(6-Chloro-5-(dimethylamino)pyridin-3-yl)benzo[d]thiazol-2-amine] | 191 nM | 613 nM | 985 nM | –
CC(=O)Nc1nc2ccc(-c3cncc(OCC#N)c3)cc2s1 [Example 288, N-(6-(5-(Cyanomethoxy)pyridin-3-yl)benzo[d]thiazol-2-yl)acetamide] | 83.3 nM | 464 nM | 236 nM | –
CC(=O)Nc1nc2ccc(-c3cncc(F)c3)cc2s1 [Example 289, N-(6-(5-Fluoropyridin-3-yl)benzo[d]thiazol-2-yl)acetamide] | 96.3 nM | 3210 nM | 450 nM | –
CC(=O)Nc1nc2ccc(-c3cnc(Cl)c(O)c3)cc2s1 [Example 301, N-(6-(6-chloro-5-hydroxypyridin-3-yl)benzo[d]thiazol-2-yl)acetamide] | 5 nM | 94.1 nM | 100 nM | –
CC(=O)Nc1nc2ccc(-c3cnc(C(F)(F)F)c(O)c3)cc2s1 [Example 302, N-(6-(5-hydroxy-6-(trifluoromethyl)pyridin-3-yl)benzo[d]thiazol-2-yl)acetamide] | 8.5 nM | 159 nM | 157 nM | –
CC(=O)Nc1nc2ccc(-c3cnc(Cl)c(OC(C)=O)c3)cc2s1 [Example 303, 5-(2-acetamidobenzo[d]thiazol-6-yl)-2-chloropyridin-3-yl acetate] | 2 nM | 12.2 nM | 1.7 nM | –
Nc1nc2ccc(-c3cnc(Cl)c(NS(=O)(=O)c4cccc(OC(F)F)c4)c3)cc2s1 [Example 307, N-(5-(2-amino-1,3-benzothiazol-6-yl)-2-chloro-3-pyridinyl)-3-(difluoromethoxy)benzenesulfonamide] | 6.7 nM | 17.3 nM | 115 nM | –
Nc1nc2ccc(-c3cnc(Cl)c(NS(=O)(=O)c4ccc(C(F)(F)F)cc4Cl)c3)cc2s1 [Example 308, N-(5-(2-amino-1,3-benzothiazol-6-yl)-2-chloro-3-pyridinyl)-2-chloro-4-(trifluoromethyl)benzenesulfonamide] | 2.6 nM | 10.6 nM | 501 nM | –
Cc1cc(F)ccc1S(=O)(=O)Nc1cc(-c2ccc3nc(N)sc3c2)cnc1Cl [Example 312, N-(5-(2-amino-1,3-benzothiazol-6-yl)-2-chloro-3-pyridinyl)-4-fluoro-2-methylbenzenesulfonamide] | 6 nM | 24.9 nM | 348 nM | –
Nc1nc2ccc(-c3cnc(Cl)c(NS(=O)(=O)c4ccccc4C(F)(F)F)c3)cc2s1 [Example 314, N-(5-(2-amino-1,3-benzothiazol-6-yl)-2-chloro-3-pyridinyl)-2-(trifluoromethyl)benzenesulfonamide] | 2.5 nM | 12.7 nM | 205 nM | –
CC(=O)Nc1nc2ccc(-c3cnc(Cl)c(NS(=O)(=O)N4CCCCC4)c3)cc2s1 [Example 316, N-(6-(6-chloro-5-((1-piperidinylsulfonyl)amino)-3-pyridinyl)-1,3-benzothiazol-2-yl)acetamide] | 10.3 nM | 35.8 nM | 7 nM | –

Further lines, with some results ahead:

IC50 [1] | IC50 [2] | IC50 [3, 4] | Compound | IC50 ([3]; HCT-116, read-out: HCT 116 pAKT IC50)
7.5 nM | 55.9 nM | 54.9 nM | CC(=O)Nc1nc2ccc(-c3cncc(NS(=O)(=O)c4ccc(F)cc4)c3)nc2s1 [Example 228, N-(5-(5-(4-Fluorophenylsulfonamido)pyridin-3-yl)thiazolo[5,4-b]pyridin-2-yl)acetamide] | –
53.8 nM | 3790 nM | 2960 nM | CCOc1cc(-c2ccc3nc(NC(C)=O)sc3c2)cnc1Cl [Example 239, N-(6-(6-chloro-5-ethoxypyridin-3-yl)benzo[d]thiazol-2-yl)acetamide] | –
155 nM | 1280 nM | 643 nM | COc1cc(-c2ccc3nc(NC(C)=O)sc3c2)cnc1Cl [Example 240, N-(6-(6-chloro-5-methoxypyridin-3-yl)benzo[d]thiazol-2-yl)acetamide] | –
19.5 nM | 244 nM | 93.9 nM | CC(=O)Nc1nc2ccc(-c3cnc(Cl)c(OC(F)F)c3)cc2s1 [Example 247, N-(6-(6-chloro-5-(difluoromethoxy)pyridin-3-yl)benzo[d]thiazol-2-yl)acetamide] | –
14.5 nM | 20.9 nM | 1430 nM | COc1ccc(S(=O)(=O)Nc2cc(-c3ccc4nc(NC(C)=O)sc4c3)cnc2C#N)cc1 [Example 267, N-(6-(6-cyano-5-(4-methoxyphenylsulfonamido)pyridin-3-yl)benzo[d]thiazol-2-yl)acetamide] | –
311 nM | 2900 nM | 616 nM | CN(C)CC(=O)Nc1nc2ccc(-c3cnc(Cl)c(N(C)C)c3)cc2s1 [Example 275, N-(6-(6-Chloro-5-(dimethylamino)pyridin-3-yl)benzo[d]thiazol-2-yl)-2-(dimethylamino)acetamide] | –
14.9 nM | 36.8 nM | 496 nM | Nc1nc2ccc(-c3cnc(Cl)c(NS(=O)(=O)c4ccc(F)cc4Cl)c3)cc2s1 [Example 309, N-(5-(2-amino-1,3-benzothiazol-6-yl)-2-chloro-3-pyridinyl)-2-chloro-4-fluorobenzenesulfonamide] | –
7.6 nM | 17.4 nM | 402 nM | Nc1nc2ccc(-c3cnc(Cl)c(NS(=O)(=O)c4ccc(Cl)cc4Cl)c3)cc2s1 [Example 310, N-(5-(2-amino-1,3-benzothiazol-6-yl)-2-chloro-3-pyridinyl)-2,4-dichlorobenzenesulfonamide] | –
17.1 nM | 49.1 nM | 222 nM | Nc1nc2ccc(-c3cnc(Cl)c(NS(=O)(=O)c4ccc(F)cc4F)c3)cc2s1 [Example 311, N-(5-(2-amino-1,3-benzothiazol-6-yl)-2-chloro-3-pyridinyl)-2,4-difluorobenzenesulfonamide] | –
13.6 nM | 27.9 nM | 424 nM | Nc1nc2ccc(-c3cnc(Cl)c(NS(=O)(=O)c4ccc(Cl)cc4F)c3)cc2s1 [Example 313, N-(5-(2-amino-1,3-benzothiazol-6-yl)-2-chloro-3-pyridinyl)-4-chloro-2-fluorobenzenesulfonamide] | –
8.6 nM | 30.2 nM | 246 nM | CNc1nc2ccc(-c3cnc(Cl)c(NS(=O)(=O)c4ccc(F)cc4)c3)cc2s1 [Example 317, N-(2-chloro-5-(2-(methylamino)-1,3-benzothiazol-6-yl)-3-pyridinyl)-4-fluorobenzenesulfonamide] | –
